Assay results from ChEMBL document CHEMBL2331429, “Purgin II, a resin glycoside ester-type dimer and inhibitor of multidrug efflux pumps from Ipomoea purga” (J Nat Prod, 2013).
The source made the active and inactive calls. The calls are words filed in the database; no cut-off is given here.

Tests used:
MCF7 [1] = assay: Potentiation of vinblastine-induced cytotoxicity in human MCF7 cells at 25 ug/ml after 72 hrs by SRB assay; assay type: functional
MCF7 [2] = assay: Cytotoxicity against human MCF7 cells after 72 hrs by SRB assay; assay type: cell-based; conditions: MCF7, 72 h
[3] = biological target: T1, ATP-dependent translocase ABCB1 (Homo sapiens, UniProt P08183); assay: Inhibition of p-glycoprotein in human vinblastine-resistant MCF7 cells cultured in medium containing vinblastine assessed as potentiation of vinblastine-induced cytotoxicity at 25 ug/ml after 72 hrs by SRB assay; assay type: cell-based; conditions: mcf7, 72 h
T1 sequence (P08183 whole entry): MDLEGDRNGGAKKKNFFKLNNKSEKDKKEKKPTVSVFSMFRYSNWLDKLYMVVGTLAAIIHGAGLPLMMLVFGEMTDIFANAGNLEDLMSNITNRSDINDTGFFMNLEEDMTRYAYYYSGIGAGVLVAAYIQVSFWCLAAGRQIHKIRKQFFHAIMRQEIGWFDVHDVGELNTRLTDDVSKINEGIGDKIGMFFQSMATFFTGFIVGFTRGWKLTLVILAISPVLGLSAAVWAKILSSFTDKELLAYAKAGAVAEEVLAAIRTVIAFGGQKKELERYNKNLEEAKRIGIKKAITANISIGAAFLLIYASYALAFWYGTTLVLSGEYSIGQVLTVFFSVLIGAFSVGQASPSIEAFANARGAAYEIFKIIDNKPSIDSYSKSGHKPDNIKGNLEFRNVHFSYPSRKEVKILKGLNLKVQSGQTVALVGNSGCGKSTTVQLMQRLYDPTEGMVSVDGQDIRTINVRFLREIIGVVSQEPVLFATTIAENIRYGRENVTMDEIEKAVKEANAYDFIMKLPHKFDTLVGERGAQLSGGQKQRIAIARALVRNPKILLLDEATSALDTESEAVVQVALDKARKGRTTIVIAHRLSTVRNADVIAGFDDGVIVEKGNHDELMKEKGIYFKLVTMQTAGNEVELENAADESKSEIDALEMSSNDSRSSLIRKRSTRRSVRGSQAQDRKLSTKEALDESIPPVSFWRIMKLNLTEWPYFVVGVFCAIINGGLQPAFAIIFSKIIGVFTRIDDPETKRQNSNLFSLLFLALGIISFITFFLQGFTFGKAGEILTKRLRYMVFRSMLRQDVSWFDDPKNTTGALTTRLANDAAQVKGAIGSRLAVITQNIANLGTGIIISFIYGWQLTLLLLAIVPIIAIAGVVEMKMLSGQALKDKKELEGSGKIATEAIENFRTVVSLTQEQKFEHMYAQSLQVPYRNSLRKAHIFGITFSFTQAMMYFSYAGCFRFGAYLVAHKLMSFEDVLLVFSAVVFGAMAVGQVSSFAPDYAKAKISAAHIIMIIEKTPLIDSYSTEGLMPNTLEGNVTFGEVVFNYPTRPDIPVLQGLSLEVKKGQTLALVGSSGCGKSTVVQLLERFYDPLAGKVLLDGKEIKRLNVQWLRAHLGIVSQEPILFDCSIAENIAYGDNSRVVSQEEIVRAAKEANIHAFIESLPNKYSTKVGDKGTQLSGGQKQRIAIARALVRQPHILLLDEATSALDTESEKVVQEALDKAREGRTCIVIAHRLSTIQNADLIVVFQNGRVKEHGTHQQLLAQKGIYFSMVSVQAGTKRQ

MCF7 [4] = assay: Cytotoxicity against human vinblastine-resistant MCF7 cells after 72 hrs by SRB assay; assay type: cell-based; conditions: MCF7, 72 h
[5] = biological target: T1, ATP-dependent translocase ABCB1; assay: Inhibition of p-glycoprotein in human vinblastine-resistant MCF7 cells cultured in vinblastine-free medium assessed as potentiation of vinblastine-induced cytotoxicity at 25 ug/ml after 72 hrs by SRB assay; assay type: cell-based; conditions: mcf7, 72 h
[6] = biological target: T1, ATP-dependent translocase ABCB1; assay: Inhibition of p-glycoprotein in human vinblastine-resistant MCF7 cells assessed as increase of rhodamine-123 accumulation at 5 to 25 ug/ml measured up to 50 mins; assay type: cell-based; conditions: mcf7, 50 min
MCF7 [7] = assay: Reversible inhibition of p-glycoprotein in human vinblastine-resistant MCF7 cells assessed as increase of rhodamine-123 accumulation at 5 to 25 ug/ml measured up to 50 mins; assay type: cell-based
[8] = biological target: T1, ATP-dependent translocase ABCB1; assay: Inhibition of p-glycoprotein in human vinblastine-resistant MCF7 cells assessed as increase of rhodamine-123 accumulation at 5 ug/ml measured up to 50 mins; assay type: cell-based; conditions: mcf7, 50 min
[9] = biological target: T1, ATP-dependent translocase ABCB1; assay: Inhibition of p-glycoprotein in human vinblastine-resistant MCF7 cells cultured in vinblastine-free medium assessed as potentiation of vinblastine-induced cytotoxicity at 5 ug/ml after 72 hrs by SRB assay; assay type: cell-based; conditions: mcf7, 72 h
[10] = biological target: T1, ATP-dependent translocase ABCB1; assay: Inhibition of p-glycoprotein in human vinblastine-resistant MCF7 cells cultured in medium containing vinblastine assessed as potentiation of vinblastine-induced cytotoxicity at 5 ug/ml after 72 hrs by SRB assay; assay type: cell-based; conditions: mcf7, 72 h

inhibition (INH) [6] | inhibition (INH) [8] | SMILES | fold change (FC) (MCF7 [1]) | IC50 (MCF7 [2]) [µg/mL] | fold change (FC) [3] | IC50 (MCF7 [4]) [µg/mL] | fold change (FC) [5] | inhibition (MCF7 [7]) | fold change (FC) [9] | fold change (FC) [10]
 |  | CCCCCCCCCC(=O)O[C@H]1[C@H](O[C@@H]2[C@@H](O)[C@@H](O)[C@H](O[C@H]3[C@H](O[C@@H](CCCCC)CCCCCCCCCC(=O)O[C@H]4[C@H](O)[C@@H](O)[C@H](O[C@@H]5[C@@H](O[C@@H]6O[C@@H](C)[C@H](OC(=O)CCCCC)[C@@H](OC(=O)/C=C/c7ccccc7)[C@H]6O)[C@H](C)O[C@@H](O[C@@H]6[C@@H](O)[C@H]7OC(=O)CCCCCCCCC[C@H](CCCCC)O[C@@H]8O[C@H](CO)[C@@H](O)[C@H](O)[C@H]8O[C@@H]7O[C@H]6C)[C@@H]5OC(=O)CCCCCCCCC)O[C@@H]4CO)O[C@H](CO)[C@@H](O)[C@@H]3O)O[C@H]2C)O[C@@H](C)[C@H](O[C@@H]2O[C@@H](C)[C@H](OC(=O)CCCCC)[C@@H](OC(=O)/C=C/c3ccccc3)[C@H]2O)[C@H]1O[C@@H]1O[C@H](CO)[C@@H](O)[C@H](O)[C@H]1O [PURGIN III] | 4.7 | > 25 | 6.4 | > 25 | 6.5 |  |  | 
Active |  | CCCCCCCCCC(=O)O[C@H]1[C@H](O[C@@H]2[C@@H](O)[C@@H](O)[C@H](O[C@H]3[C@H](O[C@@H](CCCCC)CCCCCCCCCC(=O)O[C@H]4[C@H](O)[C@@H](O)[C@H](O[C@@H]5[C@@H](O[C@@H]6O[C@@H](C)[C@H](OC(=O)[C@@H](C)CC)[C@@H](OC(=O)/C=C/c7ccccc7)[C@H]6O)[C@H](C)O[C@@H](O[C@@H]6[C@@H](O)[C@H]7OC(=O)CCCCCCCCC[C@H](CCCCC)O[C@@H]8O[C@H](CO)[C@@H](O)[C@H](O)[C@H]8O[C@@H]7O[C@H]6C)[C@@H]5OC(=O)CCCCCCCCC)O[C@@H]4CO)O[C@H](CO)[C@@H](O)[C@@H]3O)O[C@H]2C)O[C@@H](C)[C@H](O[C@@H]2O[C@@H](C)[C@H](OC(=O)[C@@H](C)CC)[C@@H](OC(=O)/C=C/c3ccccc3)[C@H]2O)[C@H]1O[C@@H]1O[C@H](CO)[C@@H](O)[C@H](O)[C@H]1O [PURGIN II] | >73.4 | > 25 | > 1687.5 | > 25 | > 2140.6 | Active |  | 
 |  | CCCCCCCCCCCC(=O)O[C@H]1[C@H](O[C@@H]2[C@@H](O)[C@@H](O)[C@H](O[C@H]3[C@H](O[C@@H](CCCCC)CCCCCCCCCC(=O)O[C@H]4[C@H](O)[C@@H](O)[C@H](O[C@@H]5[C@@H](O[C@@H]6O[C@@H](C)[C@H](OC(=O)[C@@H](C)CC)[C@@H](O)[C@H]6OC(=O)/C=C/c6ccccc6)[C@H](C)O[C@@H](O[C@@H]6[C@@H](O)[C@H]7OC(=O)CCCCCCCCC[C@H](CCCCC)O[C@@H]8O[C@H](C)[C@H](O)[C@H](O)[C@H]8O[C@@H]7O[C@H]6C)[C@@H]5OC(=O)CCCCCCCCCCC)O[C@@H]4CO)O[C@H](C)[C@H](O)[C@@H]3O)O[C@H]2C)O[C@@H](C)[C@H](O[C@@H]2O[C@@H](C)[C@H](OC(=O)[C@@H](C)CC)[C@@H](OC(=O)/C=C/c3ccccc3)[C@H]2O)[C@H]1O[C@@H]1O[C@H](CO)[C@@H](O)[C@H](O)[C@H]1O [PURGIN I] | 2.9 | > 25 | 4.7 | > 25 | 3.8 |  |  | 
 |  | CCCCCCCCCC(=O)O[C@H]1[C@H](O[C@@H]2[C@@H](O)[C@H]3OC(=O)CCCCCCCCC[C@H](CCCCC)O[C@@H]4O[C@H](C)[C@H](O)[C@H](O)[C@H]4O[C@@H]3O[C@H]2C)O[C@@H](C)[C@H](O[C@@H]2O[C@@H](C)[C@H](OC(=O)CCCCC)[C@@H](OC(=O)/C=C/c3ccccc3)[C@H]2O)[C@H]1O[C@@H]1O[C@H](CO)[C@@H](O)[C@H](O)[C@H]1O [PURGINOSIDE II] | 1.4 | > 25 | 1.2 | > 25 | 1.4 |  |  | 
 |  | CCCCCCCCCC(=O)O[C@H]1[C@H](O[C@@H]2[C@@H](O)[C@H]3OC(=O)CCCCCCCCC[C@H](CCCCC)O[C@@H]4O[C@H](C)[C@H](O)[C@H](O)[C@H]4O[C@@H]3O[C@H]2C)O[C@@H](C)[C@H](O[C@@H]2O[C@@H](C)[C@H](OC(=O)CCCCC)[C@@H](O)[C@H]2O)[C@H]1O[C@@H]1O[C@H](CO)[C@@H](O)[C@H](O)[C@H]1O [PURGINOSIDE IV] | 2.5 | > 25 | 3.3 | > 25 | 3 |  |  | 
 |  | CCCCCCCCCC(=O)O[C@H]1[C@H](O[C@@H]2[C@@H](O)[C@H]3OC(=O)CCCCCCCCC[C@H](CCCCC)O[C@@H]4O[C@H](C)[C@H](O)[C@H](O)[C@H]4O[C@@H]3O[C@H]2C)O[C@@H](C)[C@H](O[C@@H]2O[C@@H](C)[C@H](OC(=O)[C@@H](C)CC)[C@@H](O)[C@H]2OC(=O)/C=C/c2ccccc2)[C@H]1O[C@@H]1O[C@H](CO)[C@@H](O)[C@H](O)[C@H]1O [PURGINOSIDE I] | 0.8 | > 25 | 2.8 | > 25 | 2.9 |  |  | 
 | Active | COC(=O)[C@H]1[C@H]2C[C@@H]3c4[nH]c5cc(OC)ccc5c4CCN3C[C@H]2C[C@@H](OC(=O)c2cc(OC)c(OC)c(OC)c2)[C@@H]1OC [RESERPINE] |  |  |  |  |  |  | 4.4 | 29.2
